ChEMBL document CHEMBL2429768, “Eco-friendly synthesis and antimicrobial activities of substituted-5-(1H-indol-3-yl)methylene)-2,2-dimethyl-1,3-dioxane-4,6-dione derivatives” (2013)
In brackets after ≈: the same amount, converted by molar mass.

Key:
Assay type in all cases: functional
Aspergillus niger [1] = experiment: Antifungal activity against Aspergillus niger at 50 ug/ml after 72 hrs by agar well diffusion method; conditions: read-out: DIZ
Fusarium oxysporum [2] = experiment: Antifungal activity against Fusarium oxysporum at 500 ug/ml after 72 hrs by agar well diffusion method; conditions: read-out: DIZ
Fusarium oxysporum [3] = experiment: Antifungal activity against Fusarium oxysporum at 300 ug/ml after 72 hrs by agar well diffusion method; conditions: read-out: DIZ
Fusarium oxysporum [4] = experiment: Antifungal activity against Fusarium oxysporum at 200 ug/ml after 72 hrs by agar well diffusion method; conditions: read-out: DIZ
Fusarium oxysporum [5] = experiment: Antifungal activity against Fusarium oxysporum at 100 ug/ml after 72 hrs by agar well diffusion method; conditions: read-out: DIZ
Fusarium oxysporum [6] = experiment: Antifungal activity against Fusarium oxysporum at 50 ug/ml after 72 hrs by agar well diffusion method; conditions: read-out: DIZ
Rhizoctonia solani [7] = experiment: Antifungal activity against Rhizoctonia solani at 500 ug/ml after 72 hrs by agar well diffusion method; conditions: read-out: DIZ
Rhizoctonia solani [8] = experiment: Antifungal activity against Rhizoctonia solani at 300 ug/ml after 72 hrs by agar well diffusion method; conditions: read-out: DIZ
Rhizoctonia solani [9] = experiment: Antifungal activity against Rhizoctonia solani at 200 ug/ml after 72 hrs by agar well diffusion method; conditions: read-out: DIZ
Rhizoctonia solani [10] = experiment: Antifungal activity against Rhizoctonia solani at 100 ug/ml after 72 hrs by agar well diffusion method; conditions: read-out: DIZ
Rhizoctonia solani [11] = experiment: Antifungal activity against Rhizoctonia solani at 50 ug/ml after 72 hrs by agar well diffusion method; conditions: read-out: DIZ
Bacillus subtilis [12] = experiment: Antibacterial activity against Bacillus subtilis at 500 ug/ml after 24 hrs by agar well diffusion method; conditions: read-out: DIZ
Bacillus subtilis [13] = experiment: Antibacterial activity against Bacillus subtilis at 300 ug/ml after 24 hrs by agar well diffusion method; conditions: read-out: DIZ
Bacillus subtilis [14] = experiment: Antibacterial activity against Bacillus subtilis at 200 ug/ml after 24 hrs by agar well diffusion method; conditions: read-out: DIZ
Bacillus subtilis [15] = experiment: Antibacterial activity against Bacillus subtilis at 100 ug/ml after 24 hrs by agar well diffusion method; conditions: read-out: DIZ
Bacillus subtilis [16] = experiment: Antibacterial activity against Bacillus subtilis at 50 ug/ml after 24 hrs by agar well diffusion method; conditions: read-out: DIZ
Staphylococcus aureus [17] = experiment: Antibacterial activity against Staphylococcus aureus ATCC 6538 at 500 ug/ml after 24 hrs by agar well diffusion method; conditions: ATCC 6538, 24 h, read-out: DIZ
Staphylococcus aureus [18] = experiment: Antibacterial activity against Staphylococcus aureus ATCC 6538 at 300 ug/ml after 24 hrs by agar well diffusion method; conditions: ATCC 6538, 24 h, read-out: DIZ
Staphylococcus aureus [19] = experiment: Antibacterial activity against Staphylococcus aureus ATCC 6538 at 200 ug/ml after 24 hrs by agar well diffusion method; conditions: ATCC 6538, 24 h, read-out: DIZ
Staphylococcus aureus [20] = experiment: Antibacterial activity against Staphylococcus aureus ATCC 6538 at 100 ug/ml after 24 hrs by agar well diffusion method; conditions: ATCC 6538, 24 h, read-out: DIZ
Escherichia coli [21] = experiment: Antibacterial activity against Escherichia coli ATCC 8739 at 300 ug/ml after 24 hrs by agar well diffusion method; conditions: ATCC 8739, 24 h, read-out: DIZ
Escherichia coli [22] = experiment: Antibacterial activity against Escherichia coli ATCC 8739 at 200 ug/ml after 24 hrs by agar well diffusion method; conditions: ATCC 8739, 24 h, read-out: DIZ
Escherichia coli [23] = experiment: Antibacterial activity against Escherichia coli ATCC 8739 at 100 ug/ml after 24 hrs by agar well diffusion method; conditions: ATCC 8739, 24 h, read-out: DIZ
Escherichia coli [24] = experiment: Antibacterial activity against Escherichia coli ATCC 8739 at 50 ug/ml after 24 hrs by agar well diffusion method; conditions: ATCC 8739, 24 h, read-out: DIZ
Klebsiella pneumoniae [25] = experiment: Antibacterial activity against Klebsiella pneumoniae at 500 ug/ml after 24 hrs by agar well diffusion method; conditions: read-out: DIZ
Klebsiella pneumoniae [26] = experiment: Antibacterial activity against Klebsiella pneumoniae at 300 ug/ml after 24 hrs by agar well diffusion method; conditions: read-out: DIZ
Klebsiella pneumoniae [27] = experiment: Antibacterial activity against Klebsiella pneumoniae at 200 ug/ml after 24 hrs by agar well diffusion method; conditions: read-out: DIZ
Klebsiella pneumoniae [28] = experiment: Antibacterial activity against Klebsiella pneumoniae at 50 ug/ml after 24 hrs by agar well diffusion method; conditions: read-out: DIZ
Escherichia coli [29] = experiment: Antibacterial activity against Escherichia coli ATCC 8739 at 500 ug/ml after 24 hrs by agar well diffusion method; conditions: ATCC 8739, 24 h, read-out: DIZ
Klebsiella pneumoniae [30] = experiment: Antibacterial activity against Klebsiella pneumoniae at 100 ug/ml after 24 hrs by agar well diffusion method; conditions: read-out: DIZ
Staphylococcus aureus [31] = experiment: Antibacterial activity against Staphylococcus aureus ATCC 6538 at 50 ug/ml after 24 hrs by agar well diffusion method; conditions: ATCC 6538, 24 h, read-out: DIZ
Aspergillus flavus [32] = experiment: Antifungal activity against Aspergillus flavus at 50 ug/ml after 72 hrs by agar well diffusion method; conditions: read-out: DIZ
Aspergillus flavus [33] = experiment: Antifungal activity against Aspergillus flavus at 100 ug/ml after 72 hrs by agar well diffusion method; conditions: read-out: DIZ
Aspergillus flavus [34] = experiment: Antifungal activity against Aspergillus flavus after 72 hrs by agar well diffusion method
Aspergillus niger [35] = experiment: Antifungal activity against Aspergillus niger after 72 hrs by agar well diffusion method
Fusarium oxysporum [36] = experiment: Antifungal activity against Fusarium oxysporum after 72 hrs by agar well diffusion method
Rhizoctonia solani [37] = experiment: Antifungal activity against Rhizoctonia solani after 72 hrs by agar well diffusion method
Bacillus subtilis [38] = experiment: Antibacterial activity against Bacillus subtilis after 24 hrs by agar well diffusion method
Staphylococcus aureus [39] = experiment: Antibacterial activity against Staphylococcus aureus ATCC 6538 after 24 hrs by agar well diffusion method; conditions: ATCC 6538, 24 h
Escherichia coli [40] = experiment: Antibacterial activity against Escherichia coli ATCC 8739 after 24 hrs by agar well diffusion method; conditions: ATCC 8739, 24 h
Klebsiella pneumoniae [41] = experiment: Antibacterial activity against Klebsiella pneumoniae after 24 hrs by agar well diffusion method
Aspergillus flavus [42] = experiment: Antifungal activity against Aspergillus flavus at 500 ug/ml after 72 hrs by agar well diffusion method; conditions: read-out: DIZ
Aspergillus flavus [43] = experiment: Antifungal activity against Aspergillus flavus at 300 ug/ml after 72 hrs by agar well diffusion method; conditions: read-out: DIZ
Aspergillus flavus [44] = experiment: Antifungal activity against Aspergillus flavus at 200 ug/ml after 72 hrs by agar well diffusion method; conditions: read-out: DIZ
Aspergillus niger [45] = experiment: Antifungal activity against Aspergillus niger at 500 ug/ml after 72 hrs by agar well diffusion method; conditions: read-out: DIZ
Aspergillus niger [46] = experiment: Antifungal activity against Aspergillus niger at 300 ug/ml after 72 hrs by agar well diffusion method; conditions: read-out: DIZ
Aspergillus niger [47] = experiment: Antifungal activity against Aspergillus niger at 200 ug/ml after 72 hrs by agar well diffusion method; conditions: read-out: DIZ
Aspergillus niger [48] = experiment: Antifungal activity against Aspergillus niger at 100 ug/ml after 72 hrs by agar well diffusion method; conditions: read-out: DIZ

Compound: CC1(C)OC(=O)C(=Cc2c[nH]c3ccc([N+](=O)[O-])cc23)C(=O)O1
- zone of inhibition at 50 µg/mL (Aspergillus niger [1]): 7 mm
- zone of inhibition at 500 µg/mL (Fusarium oxysporum [2]): 31 mm
- zone of inhibition at 300 µg/mL (Fusarium oxysporum [3]): 21 mm
- zone of inhibition at 200 µg/mL (Fusarium oxysporum [4]): 17 mm
- zone of inhibition at 100 µg/mL (Fusarium oxysporum [5]): 14 mm
- zone of inhibition at 50 µg/mL (Fusarium oxysporum [6]): 10 mm
- zone of inhibition at 500 µg/mL (Rhizoctonia solani [7]): 32 mm
- zone of inhibition at 300 µg/mL (Rhizoctonia solani [8]): 24 mm
- zone of inhibition at 200 µg/mL (Rhizoctonia solani [9]): 19 mm
- zone of inhibition at 100 µg/mL (Rhizoctonia solani [10]): 15 mm
- zone of inhibition at 50 µg/mL (Rhizoctonia solani [11]): 10 mm
- zone of inhibition at 500 µg/mL (Bacillus subtilis [12]): 24 mm
- zone of inhibition at 300 µg/mL (Bacillus subtilis [13]): 16 mm
- zone of inhibition at 200 µg/mL (Bacillus subtilis [14]): 13 mm
- zone of inhibition at 100 µg/mL (Bacillus subtilis [15]): 11 mm
- zone of inhibition at 50 µg/mL (Bacillus subtilis [16]): 6 mm
- zone of inhibition at 500 µg/mL (Staphylococcus aureus [17]): 28 mm
- zone of inhibition at 300 µg/mL (Staphylococcus aureus [18]): 18 mm
- zone of inhibition at 200 µg/mL (Staphylococcus aureus [19]): 15 mm
- zone of inhibition at 100 µg/mL (Staphylococcus aureus [20]): 12 mm
- zone of inhibition at 300 µg/mL (Escherichia coli [21]): 22 mm
- zone of inhibition at 200 µg/mL (Escherichia coli [22]): 17 mm
- zone of inhibition at 100 µg/mL (Escherichia coli [23]): 15 mm
- zone of inhibition at 50 µg/mL (Escherichia coli [24]): 10 mm
- zone of inhibition at 500 µg/mL (Klebsiella pneumoniae [25]): 34 mm
- zone of inhibition at 300 µg/mL (Klebsiella pneumoniae [26]): 25 mm
- zone of inhibition at 200 µg/mL (Klebsiella pneumoniae [27]): 20 mm
- zone of inhibition at 50 µg/mL (Klebsiella pneumoniae [28]): 11 mm
- zone of inhibition at 500 µg/mL (Escherichia coli [29]): 33 mm
- zone of inhibition at 100 µg/mL (Klebsiella pneumoniae [30]): 16 mm
- zone of inhibition at 50 µg/mL (Staphylococcus aureus [31]): 8 mm
- zone of inhibition at 50 µg/mL (Aspergillus flavus [32]): 5 mm
- zone of inhibition at 100 µg/mL (Aspergillus flavus [33]): 10 mm
- MIC (Aspergillus flavus [34]): 35 µg/mL (≈ 111 µM)
- MIC (Aspergillus niger [35]): 30 µg/mL (≈ 94.9 µM)
- MIC (Fusarium oxysporum [36]): 25 µg/mL (≈ 79 µM)
- MIC (Rhizoctonia solani [37]): 25 µg/mL (≈ 79 µM)
- MIC (Bacillus subtilis [38]): 20 µg/mL (≈ 63.2 µM)
- MIC (Staphylococcus aureus [39]): 20 µg/mL (≈ 63.2 µM)
- MIC (Escherichia coli [40]): 10 µg/mL (≈ 31.6 µM)
- MIC (Klebsiella pneumoniae [41]): 10 µg/mL (≈ 31.6 µM)
- zone of inhibition at 500 µg/mL (Aspergillus flavus [42]): 24 mm
- zone of inhibition at 300 µg/mL (Aspergillus flavus [43]): 17 mm
- zone of inhibition at 200 µg/mL (Aspergillus flavus [44]): 13 mm
- zone of inhibition at 500 µg/mL (Aspergillus niger [45]): 26 mm
- zone of inhibition at 300 µg/mL (Aspergillus niger [46]): 19 mm
- zone of inhibition at 200 µg/mL (Aspergillus niger [47]): 15 mm
- zone of inhibition at 100 µg/mL (Aspergillus niger [48]): 11 mm
